In US12558329B2 (New York University, priority 2021, dated 2026):
Entries after “also recorded” stand apart in the source; their conditions may differ. Peptide text beside a SMILES is read from it. * marks the point of attachment. Cbz = O=C(OCc1ccccc1)*

Experiments:
[1] = tested on: human cells; assay: 18O2-GASSP labelling of human cells, untargeted polar metabolomics, with or without IOX1; format: cell-based; details: 18O labelling of the metabolite in cells treated with IOX1 (dioxygenase inhibitor), 24 hours
Description: To map the molecular fate of O2 in metabolic pathways in living cells, GASSP was used to carry out ^18O2 labelling in cell lines of different tissue origins at ^18O2 concentrations that represented physiological (3%), hypoxic (1%), and severely hypoxic (0.2%) oxygen tensions found in tissues and tumours^7. At the end of each run, polar metabolites were extracted and untargeted polar metabolomics using liquid chromatography-high resolution mass spectrometry (LC-MS) were carried out to identify metabolites labeled with ^18O.
A list of unique features identified by untargeted metabolomics that were >0.25% (natural abundance of ^18O is 0.2%) labelled by ^18O atoms in each cell line at each oxygen tension was generated. In addition, background signal was controlled by requiring that ^18O labeled peaks had to have a signal that was two-fold greater than naturally occurring isotopes found in non-labelled (^16O) metabolite cell extracts. To determine the proportion of unique ^18O labelled features that were due to dioxygenase activity, cells were treated with a pan-dioxygenase inhibitor (IOX1) at concentrations that inhibit iron-dependent dioxygenases, such as the HIF1α prolyl hydroxylases (FIGS. 5E-5F) and identified ^18O labelled polar metabolites. This list of ^18O metabolites was generated by identifying all features in the unlabelled samples, filtering these features against blank samples to remove background peaks, and calculating the fractional ^18O labelling with the assumption that a metabolite would have no more than three oxygen atoms labelled, followed by manual curation of labelled features (FIG. 1B and FIG. 5G). […] These ^18O-labelled features were termed the oxy-metabolome.
To determine the identities of the labeled metabolites, the list of ^18O labelled features was annotated to their corresponding unlabelled metabolites using retention time matching, tandem mass spectrometry (MS2) fragmentation patterns, and database searching.
(§1) All steps involved in setting up labelling with ^18O2 were performed at room temperature and inside a chemical fume hood. The procedure may vary depending on the type and number of tissue culture plates in the chamber and the amount of media in the plates. Users must test the system by using ^16O2:CO2:N2 or other unlabelled gases to optimize conditions for their needs and avoid consumption of costly labelled gases. Cells were treated with or without 5 μM MG132, 500 μM IOX1, 250 μM DFO, or 70 μM ascorbate, before placing tissue culture plates into the modular incubator chamber (MIC) containing a wireless oxygen sensor and a 15 cm dish of water to maintain humidity. Next, the clamps were closed to form an air-tight seal between the lid and platform of the MIC. […] N2 flushing was repeated for a total of three times, or until the sensor in the chamber stabilized at 0% O2 for 10 minutes.

[2] = tested on: MIAPACA2 cells; assay: 18O2-GASSP labelling of MIAPACA2 cells treated with MG132, IOX1, DFO or ascorbate; format: cell-based, human
Description: As additional controls, MIAPACA2 cells were treated with an iron chelator (DFO, FIG. 5E-5F), a proteasome inhibitor (MG132) to induce proteotoxic stress, and physiological levels of ascorbate, an antioxidant, to determine the effects of ROS on ^18O-labelling. Labelling of ^18O γ-butyrobetaine was blocked by IOX1 and DFO, consistent with the fact that trimethyllysine hydroxylase (TMLH) is an iron-dependent dioxygenase (FIGS. 7A-7D). […] Total levels of ^18O labelled methionine sulfoxide increased upon MG132 treatment and decreased following ascorbate treatment (FIGS. 7I-7M)^10.
as §1
Next, the inlet valve was opened and the ^18O2:5% CO2:N2 gaseous mixture was flushed into the system at a rate of 2.5 L/min. Subsequently, the outlet valve was immediately opened to allow gas flow out of the chamber, and to release the pressure in the system. The chamber was injected with the ^18O2:5% CO2:N2 gaseous mixture for 1 minute before the inlet and outlet valves were closed simultaneously. The chamber was allowed to equilibrate for 5 minutes. This process was repeated seven times, or until the desired oxygen concentration was reached and was stable. For 3%, 1%, and 0.2% ^18O2 labelling studies, the chamber was infused with 5%:5%:90%, 1.5%:5%:93.5%, and 0.5%:5%:94.5% ^18O2:CO2:N2, respectively. The ^18O2-infused MIC was then placed in a 37° C., 5% CO2 tissue culture incubator for 24 hours. The oxygen concentration in the chamber was monitored regularly. Oxygen measurements after 20 hours was not feasible due to the battery life of the sensor. At the end of the experiment, the chamber was opened inside a chemical fume hood before metabolite extraction.
(§2) For metabolomics, briefly, cells were washed in 4° C. 0.9% saline and metabolites were extracted with 46% methanol:23% H2O:[…] chloroform that contained a labelled amino acid standard mix (MSK-A2-1.2, Cambridge Isotope Laboratories, Inc.). Enzymatic assay samples were extracted using 80% methanol: 20% H2O that contained labelled amino acid standards. Extracts were placed into 1.5 mL Eppendorf tubes, vortexed at 4° C. for 10 min and centrifuged at 4° C. for 10 min at 17,200×g in a microcentrifuge. The aqueous phase was transferred to vials for GC-MS or Eppendorf tubes for LC-MS. Polar samples were evaporated in a SpeedVac and samples were resolved by GC-MS or LC-MS. Lipid samples were dried using a stream of N2 (for ^18O labelling studies) or air. Metabolite and lipid extracts were submitted to the NYULMC Metabolomics Core Resource Laboratory.
For polar metabolomics, the LC column was a Millipore ZIC-pHILIC (2.1×150 […], 5 μm bead size) coupled to a Dionex UltiMate 3000 system. The column oven temperature was held at 25° C. The flow rate was 100 μL/min, and the injection volume was 1 μL. Buffer A was 10 mM ammonium carbonate in water, pH 9, and Buffer B was neat acetonitrile. The gradient profile was 80-20% B (0-30 min), 20-80% B (30-31 min), and 80-80% B (31-42 min). MS Analyses were carried out on a Thermo Q Exactive HF mass spectrometer using a heated electrospray ionization (HESI) source. […]

[3] = tested on: MIAPACA2 cells; assay: 13C9-Tyr tracing in MIAPACA2 cells with the indicated reagents; format: cell-based, human
Text: 4-HMA biosynthesis has only been described in some bacteria and in rabbits. […] The production of 4-HPPA occurs in the first step of tyrosine (Tyr) catabolism via tyrosine transaminase (TAT). In rabbits, 4-HMA was proposed to be synthesized from the degradation of tyramine and octopamine by dopamine β-hydroxylase (Dbh) and monoamine oxidase (Mao) (FIG. 9A)^13. Tyramine is also a Tyr-derived metabolite. Therefore, all known substrates required to generate 4-HMA are derived from Tyr. In addition, Tyr can also be made from phenylalanine (Phe) by Phe hydroxylase (PAH) in mammalian liver cells^14. To elucidate the human 4-HMA biosynthetic pathway, the fates of ^13C9-Tyr and ^13C6-Phe were traced in human cells. […] Additionally, the generation of 4-HMA by […] would result in the incorporation of a single ^18O at the Ca position of the carboxylic acid of 4-HMA (FIG. 9A). However, this was not observed by ^18O labelling (FIG. 8B). Therefore, it was unlikely that 4-HMA biosynthesis from octopamine and tyramine catabolism occurred in the present system.
Unexpectedly, 4-HMA levels also were lower in hyperoxic (21%) conditions compared to 3% O2, reflecting either decreased production or increased consumption of this metabolite at 21% O2.
Therefore, CoQ10 was used as an indirect readout of 4-HB production. To assess the ability of human cells to biosynthesize CoQ10, cells were labelled with ^13C6-Phe or ^13C9-Tyr. CoQ10 was completely biosynthesized from Tyr, but not Phe, in human cells (FIG. 11B).
as §2
For polar metabolomics, the LC column was a Millipore ZIC-pHILIC (2.1×150 […], 5 μm bead size) coupled to a Dionex UltiMate 3000 system. The column oven temperature was held at 25° C. The flow rate was 100 μL/min, and the injection volume was 1 μL. Buffer A was 10 mM ammonium carbonate in water, pH 9, and Buffer B was neat acetonitrile. The gradient profile was 80-20% B (0-30 min), 20-80% B (30-31 min), and 80-80% B (31-42 min). MS Analyses were carried out on a Thermo Q Exactive HF mass spectrometer using a heated electrospray ionization (HESI) source. The method duration was 30 min using a polarity-switching, top 5 method. The spray voltage for both positive and negative ion modes was 3.5 kV. The capillary temperature was 320° C. with a maximum spray current of 100 ρA. The full MS scan was carried out at 120,000 resolution with a scan range of 67-1000 m/z. For ^18O2 labelling experiments, full MS scans were carried out at 240,000 resolution at the same scan range. Tandem MS spectra were obtained at 15,000 resolution. All data were acquired in profile mode. Peak heights were analyzed using Xcalibur (ThermoFisher Scientific).
Lipid metabolomics were acquired using a Waters CSH-C18 (2.1×100 mm, 1.7 μm) column coupled to a Dionex UltiMate 3000 system. The column oven temperature was held at 55° C. The flow rate was 300 μL/min and the injection volume was 1 μL. Buffer A was 60:40 acetonitrile:water, 0.1% formic acid and Buffer B was 90:10 isopropanol:acetonitrile, 10 mM ammonium formate. […]

| Structure (SMILES) | IOX1 Sensitive (Yes/No) [1] | further results |
| --- | --- | --- |
| O=c1ccn([C@@H]2O[C@H](COP(=O)(O)O)[C@@H](O)[C@H]2O)c(=O)[nH]1 [Metabolite 36, UMP] | Yes |  |
| O=C(O)[C@@H]1C[C@@H](O)CN1 [Metabolite 24, Hydroxyproline] | Yes |  |
| CCCCC(=O)O[C@H](CC(=O)[O-])C[N+](C)(C)C [Metabolite 4, Valerylcarnitine] | Yes |  |
| CC(C)C[C@@H](C=O)NC(=O)[C@H](CC(C)C)NC(=O)[C@H](CC(C)C)NC(=O)OCc1ccccc1 [MG132] (Cbz-Leu-Leu-Leu-aldehyde) |  | Total levels of 18O labelled methionine sulfoxide ([2]; 5 μM MG132, 70 μM ascorbate, 24 hours): increased |
| CC(=O)N[C@@H](CO)[C@@H](O)[C@@H](O)[C@H](O)CO [Metabolite 17, N-Acetyl-D-galactosaminitol] | Yes |  |
| NCCS(=O)O [Metabolite 32, Hypotaurine] | Yes |  |
| C[S+](CC[C@H](N)C(=O)[O-])C[C@H]1O[C@@H](n2cnc3c(N)ncnc32)[C@H](O)[C@@H]1O (some centres unmarked) [Metabolite 41, S-adenosyl methionine] | Yes |  |
| CN(CC(=O)O)C(=N)N [Metabolite 29, Creatine] | Yes |  |
| C[N+](C)(C)CCCC(=O)[O-] [Metabolite 21, g-Butyrobetaine] | Yes |  |
| O=C[C@@H](O)[C@@H](O)[C@H](O)[C@H](O)COP(=O)(O)O [Metabolite 46, D-Mannose 6-phosphate] | Yes |  |
| N[C@@H](CCC(=O)O)C(=O)O [Metabolite 33, Glutamate] | Yes |  |
| CC(=O)N(O)CCCCCNC(=O)CCC(=O)N(O)CCCCCNC(=O)CCC(=O)N(O)CCCCCN [DFO, N-[5-[[4-[5-[acetyl(hydroxy)amino]pentylamino]-4-oxobutanoyl]-hydroxyamino]pentyl]-N′-(5-aminopentyl)-N′-hydroxybutanediamide] |  | 13C9-Tyr-derived 4-HMA ([3]; 3% 16O2, 24 hours): attenuated or ablated; also recorded: severely inhibited; CoQ10 labelling from 13C9-Tyr (incorporation of tyrosine into CoQ10) ([3]; 3% 16O2, 24 hours): eliminated; also recorded: completely blocked; 4-HPLA pools ([3]; 13C-Tyr, 3% O2, 24 hours): increased; 18O labelling of methionine ([2]; 3%, 1%, 0.2% 18O2, 24 hours): less sensitive; also recorded: only partially blocked; 18O labelling of γ-butyrobetaine ([2]; 3%, 1%, 0.2% 18O2, 24 hours): sensitive; also recorded: blocked; 18O labelling of 4-HMA ([2]; MIAPACA2, 3%, 1%, 0.2% 18O2, 24 hours, 500 μM IOX1, 250 μM DFO): sensitive; also recorded: significantly attenuated; 4-HMA levels ([2]; MIAPACA2, 18O2 labelling, 24 hours, 500 μM IOX1, 250 μM DFO, 70 μM ascorbate): significantly attenuated |
| CSCC[C@H](N)C(=O)O [Metabolite 13, Methionine] | Yes |  |
| N[C@@H](CCSC[C@H](N)C(=O)O)C(=O)O [Metabolite 42, Cystathionine] | Yes |  |
| C[S+]([O-])CC[C@H](N)C(=O)O (some centres unmarked) [Metabolite 23, Methionine Sulfoxide] | Yes |  |
| CC(=O)N[C@H]1C(O)O[C@H](CO)[C@@H](O)[C@@H]1O (stereo partly drawn) [Metabolite 16, N-Acetyl-D-glucosamine] | No |  |
| NC(=O)C1=CN([C@@H]2O[C@H](COP(=O)(O)OP(=O)(O)OC[C@H]3O[C@@H](n4cnc5c(N)ncnc54)[C@H](O)[C@@H]3O)[C@@H](O)[C@H]2O)C=CC1 [Metabolite 28, NADH] | Yes |  |
